From patent publication US20200060276A1, “THIAZOLE COMPOUND AND HERBICIDE” (OAT Agrio Co., Ltd., priority 2017, published 2020)

Tests used:
Assay type in all cases: in vivo
[1] = tested on: Scirpus juncoides; experiment: Test for Herbicidal Effect in Flooding Treatment (#1), SCIJU; details: for SCIJU #1 herbicidal effect (growth inhibition grade): flooding treatment at seeding, dose 2 kg/ha, visual observation on day 21; for SCIJU #1 herbicidal effect (growth inhibition rating 0-5): flooding treatment #1
In short: (§1)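 Sieved soil in cups was flooded and left 24 h before weed seeds were sown. Compounds in acetone, diluted with Tween 80-containing water, were dropped over the whole surface at 2 kg/ha. After 21 days in a glasshouse, growth inhibition was scored visually from 0 (<10%) to 5 (≥90% or complete withering).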

[2] = tested on: Monochoria vaginalis; experiment: Test for Herbicidal Effect in Flooding Treatment (#1), MONVA; details: for MONVA #1 herbicidal effect (growth inhibition grade): flooding treatment at seeding, dose 2 kg/ha, visual observation on day 21; for MONVA #1 herbicidal effect (growth inhibition rating 0-5): flooding treatment #1
Description: (#1) Test for Herbicidal Effect in Flooding Treatment: Styrol cups each having an opening diameter of 8 cm (about 52 cm^2) were respectively filled with soil (45 ml) which had been passed through a sieve (2 mm). Water (about 115 ml) was mixed with the soil such that the soil was flooded. After the soil stood still for 24 hours, Monochoria vaginalis, Echinochloa crus-galli (L.) P. Beauv. var. formosensis Ohwi, Cyperus difformis (umbrella sedge), and Scirpus juncoides were seeded. Each of the compounds of the present invention was dissolved in acetone, and the obtained product was then diluted with water containing Tween 80®. Each of the resultant chemical solutions was dropped on the entire surface of an associated one of treatment sections, so that each section was treated with 1 ml of the respective chemical solution (a dose of 2 kg/ha). After the treatment, the plants were grown in a glasshouse. On day 21, a survey was conducted on the herbicidal activity by visual observation, and evaluation was made according to the following criteria. 0: Growth inhibition effect is less than 10%. 1: Growth inhibition effect is equal to or greater than 10%, and less than 30%. 2; Growth inhibition effect is equal to or greater than 30%, and less than 50%. 3: Growth inhibition effect equal to or greater than 50%, and less than 70%. 4: Growth inhibition effect is equal to or greater than 70%, and less than 90%. 5: Growth inhibition effect is equal to or greater than 90%, or complete withering is achieved. ECHDG=Echinochloa crus-galli (L.) P. Beauv. var. formosensis Ohwi, MONVA=Monochoria vaginalis, SCIJU=Scirpus juncoides, CYMIC=Cyperus microiria.

[3] = tested on: Echinochloa crus-galli (L.) P. Beauv. var. formosensis Ohwi; experiment: Test for Herbicidal Effect in Flooding Treatment (#1), ECHDG; details: for ECHDG #1 herbicidal effect (growth inhibition grade): flooding treatment at seeding, dose 2 kg/ha, visual observation on day 21; for ECHDG #1 herbicidal effect (growth inhibition rating 0-5): flooding treatment #1
In short: as §1

[4] = tested on: Echinochloa crus-galli (L.) P. Beauv. var. formosensis Ohwi; experiment: Test for Herbicidal Effect in Flooding Treatment (#2), ECHDG at 2-2.5 leaf stage; details: for ECHDG (2-2.5L) #2 herbicidal effect (growth inhibition grade): flooding treatment at 2-2.5 leaf stage, dose 0.2 kg/ha, visual observation on day 21; for ECHDG (2-2.5L) #2 herbicidal effect (growth inhibition rating 0-5): flooding treatment #2, 2-2.5 leaf stage
In short: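 Scoring is a visual 0–5 scale of growth inhibition (0 below 10%, 5 at 90% or more or full withering), taken 21 days after treatment in a glasshouse. Dose was 0.2 kg/ha, applied as acetone/Tween 80 aqueous solution onto flooded soil once seedlings reached the 2–2.5 leaf stage.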

## O=S(=O)(Cc1c(Cl)cccc1OCC(F)F)c1ncc(Cl)s1 [Compound 1C-51]
[1]
  SCIJU #1 herbicidal effect (growth inhibition grade): 5 (Growth inhibition effect is equal to or greater than 90%, or complete withering is achieved)
[2]
  MONVA #1 herbicidal effect (growth inhibition grade): 5 (Growth inhibition effect is equal to or greater than 90%, or complete withering is achieved)
[3]
  ECHDG #1 herbicidal effect (growth inhibition grade): 5 (Growth inhibition effect is equal to or greater than 90%, or complete withering is achieved)
[4]
  ECHDG (2-2.5L) #2 herbicidal effect (growth inhibition grade): 5 (Growth inhibition effect is equal to or greater than 90%, or complete withering is achieved)

## [O-][S+](Cc1c(Cl)cccc1OCC(F)(F)F)c1ncc(Cl)s1 (centres unmarked) [Compound 1B-10]
[1]
  SCIJU #1 herbicidal effect (growth inhibition rating 0-5): 5 (Growth inhibition effect is equal to or greater than 90%, or complete withering is achieved)
[2]
  MONVA #1 herbicidal effect (growth inhibition rating 0-5): 5 (Growth inhibition effect is equal to or greater than 90%, or complete withering is achieved)
[3]
  ECHDG #1 herbicidal effect (growth inhibition rating 0-5): 5 (Growth inhibition effect is equal to or greater than 90%, or complete withering is achieved)
[4]
  ECHDG (2-2.5L) #2 herbicidal effect (growth inhibition rating 0-5): 5 (Growth inhibition effect is equal to or greater than 90%, or complete withering is achieved)

## [O-][S+](Cc1c(F)cccc1OC(F)F)c1ncc(Cl)s1 (centres unmarked) [Compound 1B-3]
[1]
  SCIJU #1 herbicidal effect (growth inhibition rating 0-5): 5 (Growth inhibition effect is equal to or greater than 90%, or complete withering is achieved)
[2]
  MONVA #1 herbicidal effect (growth inhibition rating 0-5): 5 (Growth inhibition effect is equal to or greater than 90%, or complete withering is achieved)
[3]
  ECHDG #1 herbicidal effect (growth inhibition rating 0-5): 5 (Growth inhibition effect is equal to or greater than 90%, or complete withering is achieved)
[4]
  ECHDG (2-2.5L) #2 herbicidal effect (growth inhibition rating 0-5): 5 (Growth inhibition effect is equal to or greater than 90%, or complete withering is achieved)

## O=S(=O)(Cc1c(F)cc(F)cc1OC(F)F)c1ncc(Cl)s1 [Compound 1C-44]
[1]
  SCIJU #1 herbicidal effect (growth inhibition grade): 5 (Growth inhibition effect is equal to or greater than 90%, or complete withering is achieved)
[2]
  MONVA #1 herbicidal effect (growth inhibition grade): 5 (Growth inhibition effect is equal to or greater than 90%, or complete withering is achieved)
[3]
  ECHDG #1 herbicidal effect (growth inhibition grade): 5 (Growth inhibition effect is equal to or greater than 90%, or complete withering is achieved)
[4]
  ECHDG (2-2.5L) #2 herbicidal effect (growth inhibition grade): 5 (Growth inhibition effect is equal to or greater than 90%, or complete withering is achieved)

## O=S(=O)(Cc1c(F)ccc(F)c1OC(F)F)c1ncc(Br)s1 [Compound 1C-155]
[1]
  SCIJU #1 herbicidal effect (growth inhibition grade): 5 (Growth inhibition effect is equal to or greater than 90%, or complete withering is achieved)
[2]
  MONVA #1 herbicidal effect (growth inhibition grade): 5 (Growth inhibition effect is equal to or greater than 90%, or complete withering is achieved)
[3]
  ECHDG #1 herbicidal effect (growth inhibition grade): 5 (Growth inhibition effect is equal to or greater than 90%, or complete withering is achieved)
[4]
  ECHDG (2-2.5L) #2 herbicidal effect (growth inhibition grade): 5 (Growth inhibition effect is equal to or greater than 90%, or complete withering is achieved)

## COc1ccc(Cl)c(CS(=O)(=O)c2ncc(Cl)s2)c1Cl [Compound 1C-73]
[1]
  SCIJU #1 herbicidal effect (growth inhibition grade): 5 (Growth inhibition effect is equal to or greater than 90%, or complete withering is achieved)
[2]
  MONVA #1 herbicidal effect (growth inhibition grade): 5 (Growth inhibition effect is equal to or greater than 90%, or complete withering is achieved)
[3]
  ECHDG #1 herbicidal effect (growth inhibition grade): 5 (Growth inhibition effect is equal to or greater than 90%, or complete withering is achieved)
[4]
  ECHDG (2-2.5L) #2 herbicidal effect (growth inhibition grade): 5 (Growth inhibition effect is equal to or greater than 90%, or complete withering is achieved)

## O=S(=O)(Cc1c(Cl)cccc1OC(F)(F)F)c1ncc(Cl)s1 [Compound 1C-49]
[1]
  SCIJU #1 herbicidal effect (growth inhibition grade): 5 (Growth inhibition effect is equal to or greater than 90%, or complete withering is achieved)
[2]
  MONVA #1 herbicidal effect (growth inhibition grade): 5 (Growth inhibition effect is equal to or greater than 90%, or complete withering is achieved)
[3]
  ECHDG #1 herbicidal effect (growth inhibition grade): 5 (Growth inhibition effect is equal to or greater than 90%, or complete withering is achieved)
[4]
  ECHDG (2-2.5L) #2 herbicidal effect (growth inhibition grade): 5 (Growth inhibition effect is equal to or greater than 90%, or complete withering is achieved)

## [2H]C([2H])(c1c(OCC)ccc(Cl)c1Cl)S(=O)(=O)c1ncc(Cl)s1 [Compound 1C-130, 5-chloro-2-{[2-ethoxy-5,6-dichlorophenyl][dideuterium(methanesulfonyl)]}-1,3-thiazole]
[1]
  SCIJU #1 herbicidal effect (growth inhibition grade): 5 (Growth inhibition effect is equal to or greater than 90%, or complete withering is achieved)
[2]
  MONVA #1 herbicidal effect (growth inhibition grade): 5 (Growth inhibition effect is equal to or greater than 90%, or complete withering is achieved)
[3]
  ECHDG #1 herbicidal effect (growth inhibition grade): 5 (Growth inhibition effect is equal to or greater than 90%, or complete withering is achieved)
[4]
  ECHDG (2-2.5L) #2 herbicidal effect (growth inhibition grade): 5 (Growth inhibition effect is equal to or greater than 90%, or complete withering is achieved)

## O=S(=O)(Cc1c(Cl)cccc1OCCC(F)(F)F)c1ncc(Cl)s1 [Compound 1C-59]
[1]
  SCIJU #1 herbicidal effect (growth inhibition grade): 5 (Growth inhibition effect is equal to or greater than 90%, or complete withering is achieved)
[2]
  MONVA #1 herbicidal effect (growth inhibition grade): 5 (Growth inhibition effect is equal to or greater than 90%, or complete withering is achieved)
[3]
  ECHDG #1 herbicidal effect (growth inhibition grade): 5 (Growth inhibition effect is equal to or greater than 90%, or complete withering is achieved)
[4]
  ECHDG (2-2.5L) #2 herbicidal effect (growth inhibition grade): 4 (Growth inhibition effect is equal to or greater than 70%, and less than 90%)

## CC(c1c(F)cccc1OCC(F)F)S(=O)(=O)c1ncc(Cl)s1 (racemic) [Compound 1C-142]
[1]
  SCIJU #1 herbicidal effect (growth inhibition grade): 5 (Growth inhibition effect is equal to or greater than 90%, or complete withering is achieved)
[2]
  MONVA #1 herbicidal effect (growth inhibition grade): 5 (Growth inhibition effect is equal to or greater than 90%, or complete withering is achieved)
[3]
  ECHDG #1 herbicidal effect (growth inhibition grade): 5 (Growth inhibition effect is equal to or greater than 90%, or complete withering is achieved)
[4]
  ECHDG (2-2.5L) #2 herbicidal effect (growth inhibition grade): 5 (Growth inhibition effect is equal to or greater than 90%, or complete withering is achieved)

## CC(c1c(F)cccc1OCC(F)(F)C(F)F)S(=O)(=O)c1ncc(Br)s1 (centres unmarked) [Compound 1C-165]
[1]
  SCIJU #1 herbicidal effect (growth inhibition grade): 5 (Growth inhibition effect is equal to or greater than 90%, or complete withering is achieved)
[2]
  MONVA #1 herbicidal effect (growth inhibition grade): 5 (Growth inhibition effect is equal to or greater than 90%, or complete withering is achieved)
[3]
  ECHDG #1 herbicidal effect (growth inhibition grade): 5 (Growth inhibition effect is equal to or greater than 90%, or complete withering is achieved)
[4]
  ECHDG (2-2.5L) #2 herbicidal effect (growth inhibition grade): 3 (Growth inhibition effect equal to or greater than 50%, and less than 70%)

## CC(c1c(F)cccc1OCC(F)(F)C(F)F)S(=O)(=O)c1ncc(Cl)s1 (centres unmarked) [Compound 1C-148]
[1]
  SCIJU #1 herbicidal effect (growth inhibition grade): 5 (Growth inhibition effect is equal to or greater than 90%, or complete withering is achieved)
[2]
  MONVA #1 herbicidal effect (growth inhibition grade): 5 (Growth inhibition effect is equal to or greater than 90%, or complete withering is achieved)
[3]
  ECHDG #1 herbicidal effect (growth inhibition grade): 5 (Growth inhibition effect is equal to or greater than 90%, or complete withering is achieved)
[4]
  ECHDG (2-2.5L) #2 herbicidal effect (growth inhibition grade): 5 (Growth inhibition effect is equal to or greater than 90%, or complete withering is achieved)

## CCOc1ccc(Cl)c(F)c1CS(=O)(=O)c1ncc(Cl)s1 [Compound 1C-32]
[1]
  SCIJU #1 herbicidal effect (growth inhibition grade): 5 (Growth inhibition effect is equal to or greater than 90%, or complete withering is achieved)
[2]
  MONVA #1 herbicidal effect (growth inhibition grade): 5 (Growth inhibition effect is equal to or greater than 90%, or complete withering is achieved)
[3]
  ECHDG #1 herbicidal effect (growth inhibition grade): 5 (Growth inhibition effect is equal to or greater than 90%, or complete withering is achieved)
[4]
  ECHDG (2-2.5L) #2 herbicidal effect (growth inhibition grade): 5 (Growth inhibition effect is equal to or greater than 90%, or complete withering is achieved)

## O=S(=O)(Cc1c(F)cccc1OCC(F)F)c1ncc(Cl)s1 [Compound 1C-50]
[1]
  SCIJU #1 herbicidal effect (growth inhibition grade): 5 (Growth inhibition effect is equal to or greater than 90%, or complete withering is achieved)
[2]
  MONVA #1 herbicidal effect (growth inhibition grade): 5 (Growth inhibition effect is equal to or greater than 90%, or complete withering is achieved)
[3]
  ECHDG #1 herbicidal effect (growth inhibition grade): 5 (Growth inhibition effect is equal to or greater than 90%, or complete withering is achieved)
[4]
  ECHDG (2-2.5L) #2 herbicidal effect (growth inhibition grade): 5 (Growth inhibition effect is equal to or greater than 90%, or complete withering is achieved)
